Consider three compounds from ChEMBL document CHEMBL4145655, “Confirmation of the Revised Structure of Samoquasine A and a Proposed Structural Revision of Cherimoline” (2018).

SMILES strings stand for the structures. Activity calls are given as the source filed them. The calls are words filed in the database; no cut-off is given here.

Test [1] deals with Panel NCI-60 (60 carcinoma cell lines). Description: Cytotoxicity against human NCI60 cells at 10 uM after 48 hrs by sulforhodamine B assay. The format is functional, cell-based. Background: Sulforhodamine B stains cellular protein and so reports cell mass.
Test [2] relates to NUGC. In words: Growth inhibition of human NUGC cells at 50 ug/ml relative to control. In kind it is functional. Conditions: read-out: GI.
The subject of test [3] is HONE1 cell line. Description: Growth inhibition of human HONE1 cells at 50 ug/ml relative to control. The format is functional. Conditions: read-out: GI.

In the case of `O=c1occc2c1cnc1ccccc12`, in test [1], the outcome was inactive.
Same read-out and setting: to `Cn1ccc2c(cnc3ccccc32)c1=O` belongs “inactive”.
With `O=c1[nH]ccc2c1cnc1ccccc12`, the inhibition of growth at 50 µg/mL in test [2] is 63%; in test [3] it was 62%. In test [1], the result was inactive.
